Measurements published in US9512481B2, “Polymorphisms in the PDE3A gene” (The Regents of the University of Colorado, a body corporate, priority 2009, dated 2016).

Assays:
PDE3A promoter = assay: PDE3A Ins or Del promoter-luciferase constructs transfected into NRVMs; type: cell-based, rat; conditions: for promoter response: Del construct with deletion of the CREB binding site (CRE) at −1070, NRVMs; for promoter (transcriptional) activity: NRVMs
[1] = test system: Evi-1 transcription factor mRNA; assay: Evi-1 mRNA expression in explanted left ventricular samples from heart failure patients treated with enoximone; type: in vivo, human; conditions: explanted LV samples from HF patients treated with enoximone; compared to non-failing, no enoximone
PDE3A mRNA = PDE3A mRNA abundance in LVs explanted from end-stage HF patients, by PDE3A promoter Ins/Del genotype; type: in vivo, human

Nc1ncnc2c1ncn2[C@@H]1O[C@@H]2COP(=O)(O)O[C@H]2[C@H]1O [cAMP, cyclic AMP]
induction of Evi-1 (Evi-1): 16 fold

CCCC(=O)Nc1ncnc2c1ncn2[C@@H]1O[C@@H]2COP(=O)(O)O[C@H]2[C@H]1OC(=O)CCC [dbcAMP]
promoter response (PDE3A promoter): abolishes the promoter response

CSc1ccc(C(=O)c2[nH]c(=O)[nH]c2C)cc1 [enoximone]
mRNA expression of Evi-1 [1]: increased
promoter response (PDE3A promoter): abolishes the promoter response
PDE3A mRNA abundance (PDE3A mRNA; Del carriers (homozygous or heterozygous for PDE3A Del, n=9) treated with enoximone, compared to Del patients not receiving enoximone (n=19), p<0.001): 2.1±0.3 fold
PDE3A gene expression (PDE3A mRNA; patients homozygous for the Ins (Ins/Ins) treated with enoximone, p=0.7): 1.1±0.3 fold

CC(C)NCC(O)c1ccc(O)c(O)c1 (centres unmarked) [isoproterenol]
promoter (transcriptional) activity (PDE3A promoter; Del PDE3A promoter-luciferase construct (lacks the 29 nucleotide sequence)): increased promoter activity
promoter (transcriptional) activity (PDE3A promoter; Ins PDE3A promoter-luciferase construct (29 nucleotide sequence present)): does not go up
